Experimental data published in ChEMBL document CHEMBL4052588, “Design of a Biased Potent Small Molecule Inhibitor of the Bromodomain and PHD Finger-Containing (BRPF) Proteins Suitable for Cellular and in Vivo Studies” (J Med Chem, 2017).
pIC50: −log10 of the molar value.

Tests used:
[1] = target: T1, Bromodomain-containing protein 1 (Homo sapiens) (UniProt O95696)
T1 sequence (whole entry): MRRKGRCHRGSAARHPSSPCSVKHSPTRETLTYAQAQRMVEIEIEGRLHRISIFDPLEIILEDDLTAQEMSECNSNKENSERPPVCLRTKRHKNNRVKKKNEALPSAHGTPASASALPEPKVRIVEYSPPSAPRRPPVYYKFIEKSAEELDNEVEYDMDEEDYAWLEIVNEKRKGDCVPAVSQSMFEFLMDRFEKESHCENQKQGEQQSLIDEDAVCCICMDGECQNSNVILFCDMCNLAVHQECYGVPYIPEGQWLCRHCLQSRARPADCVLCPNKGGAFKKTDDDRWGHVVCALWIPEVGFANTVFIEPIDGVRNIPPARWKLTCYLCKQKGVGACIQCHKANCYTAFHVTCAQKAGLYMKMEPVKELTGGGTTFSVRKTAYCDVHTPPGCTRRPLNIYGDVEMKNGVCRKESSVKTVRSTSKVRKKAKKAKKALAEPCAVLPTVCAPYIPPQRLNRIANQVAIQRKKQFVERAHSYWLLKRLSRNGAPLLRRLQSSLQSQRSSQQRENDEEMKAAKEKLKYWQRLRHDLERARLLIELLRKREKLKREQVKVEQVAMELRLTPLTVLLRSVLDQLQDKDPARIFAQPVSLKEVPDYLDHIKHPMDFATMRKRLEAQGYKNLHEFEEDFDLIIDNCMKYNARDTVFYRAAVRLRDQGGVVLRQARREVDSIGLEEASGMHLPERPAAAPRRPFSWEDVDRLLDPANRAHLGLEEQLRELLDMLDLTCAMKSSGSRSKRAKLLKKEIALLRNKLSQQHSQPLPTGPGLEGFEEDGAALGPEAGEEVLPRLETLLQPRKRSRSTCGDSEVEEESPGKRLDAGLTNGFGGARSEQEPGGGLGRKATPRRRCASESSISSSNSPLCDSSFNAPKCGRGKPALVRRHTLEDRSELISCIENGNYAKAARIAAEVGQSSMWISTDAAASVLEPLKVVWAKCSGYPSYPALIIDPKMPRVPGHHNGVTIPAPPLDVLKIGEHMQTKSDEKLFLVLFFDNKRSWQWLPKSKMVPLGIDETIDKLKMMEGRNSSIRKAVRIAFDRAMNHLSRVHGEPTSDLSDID

[2] = target: T2, Bromodomain and PHD finger-containing protein 3 (Homo sapiens) (UniProt Q9ULD4)
T2 sequence (whole entry): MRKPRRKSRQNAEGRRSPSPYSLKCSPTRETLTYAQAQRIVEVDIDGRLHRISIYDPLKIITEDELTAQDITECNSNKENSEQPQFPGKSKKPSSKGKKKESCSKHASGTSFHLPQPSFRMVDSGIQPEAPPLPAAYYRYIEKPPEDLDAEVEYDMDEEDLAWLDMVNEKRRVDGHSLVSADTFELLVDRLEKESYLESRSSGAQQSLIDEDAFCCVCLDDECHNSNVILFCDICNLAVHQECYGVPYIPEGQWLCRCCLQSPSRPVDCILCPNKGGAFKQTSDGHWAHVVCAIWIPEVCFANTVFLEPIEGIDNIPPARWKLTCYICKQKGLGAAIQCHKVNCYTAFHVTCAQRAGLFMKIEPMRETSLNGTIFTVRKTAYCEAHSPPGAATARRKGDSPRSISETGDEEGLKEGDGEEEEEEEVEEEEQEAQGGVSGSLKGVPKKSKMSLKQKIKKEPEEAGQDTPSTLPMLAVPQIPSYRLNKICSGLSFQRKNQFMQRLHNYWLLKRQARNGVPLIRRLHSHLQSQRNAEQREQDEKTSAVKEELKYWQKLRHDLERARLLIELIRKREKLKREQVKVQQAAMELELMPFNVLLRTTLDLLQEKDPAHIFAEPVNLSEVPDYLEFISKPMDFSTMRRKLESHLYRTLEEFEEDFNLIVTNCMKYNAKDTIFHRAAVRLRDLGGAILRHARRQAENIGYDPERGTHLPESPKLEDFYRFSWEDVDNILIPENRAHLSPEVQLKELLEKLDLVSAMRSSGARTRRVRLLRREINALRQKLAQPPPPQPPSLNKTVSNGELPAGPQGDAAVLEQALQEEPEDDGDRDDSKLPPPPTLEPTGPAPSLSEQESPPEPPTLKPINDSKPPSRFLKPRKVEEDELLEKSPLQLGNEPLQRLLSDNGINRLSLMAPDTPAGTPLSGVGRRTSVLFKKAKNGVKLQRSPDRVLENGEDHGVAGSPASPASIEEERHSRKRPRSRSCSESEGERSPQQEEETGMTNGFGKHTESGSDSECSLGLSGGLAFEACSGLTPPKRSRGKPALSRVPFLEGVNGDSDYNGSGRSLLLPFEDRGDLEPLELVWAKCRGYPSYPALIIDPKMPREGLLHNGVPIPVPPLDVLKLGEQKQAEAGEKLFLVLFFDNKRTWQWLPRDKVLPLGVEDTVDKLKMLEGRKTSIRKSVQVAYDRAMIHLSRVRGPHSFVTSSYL

[3] = target: T3, Peregrin (Homo sapiens) (UniProt P55201)
T3 sequence (whole entry): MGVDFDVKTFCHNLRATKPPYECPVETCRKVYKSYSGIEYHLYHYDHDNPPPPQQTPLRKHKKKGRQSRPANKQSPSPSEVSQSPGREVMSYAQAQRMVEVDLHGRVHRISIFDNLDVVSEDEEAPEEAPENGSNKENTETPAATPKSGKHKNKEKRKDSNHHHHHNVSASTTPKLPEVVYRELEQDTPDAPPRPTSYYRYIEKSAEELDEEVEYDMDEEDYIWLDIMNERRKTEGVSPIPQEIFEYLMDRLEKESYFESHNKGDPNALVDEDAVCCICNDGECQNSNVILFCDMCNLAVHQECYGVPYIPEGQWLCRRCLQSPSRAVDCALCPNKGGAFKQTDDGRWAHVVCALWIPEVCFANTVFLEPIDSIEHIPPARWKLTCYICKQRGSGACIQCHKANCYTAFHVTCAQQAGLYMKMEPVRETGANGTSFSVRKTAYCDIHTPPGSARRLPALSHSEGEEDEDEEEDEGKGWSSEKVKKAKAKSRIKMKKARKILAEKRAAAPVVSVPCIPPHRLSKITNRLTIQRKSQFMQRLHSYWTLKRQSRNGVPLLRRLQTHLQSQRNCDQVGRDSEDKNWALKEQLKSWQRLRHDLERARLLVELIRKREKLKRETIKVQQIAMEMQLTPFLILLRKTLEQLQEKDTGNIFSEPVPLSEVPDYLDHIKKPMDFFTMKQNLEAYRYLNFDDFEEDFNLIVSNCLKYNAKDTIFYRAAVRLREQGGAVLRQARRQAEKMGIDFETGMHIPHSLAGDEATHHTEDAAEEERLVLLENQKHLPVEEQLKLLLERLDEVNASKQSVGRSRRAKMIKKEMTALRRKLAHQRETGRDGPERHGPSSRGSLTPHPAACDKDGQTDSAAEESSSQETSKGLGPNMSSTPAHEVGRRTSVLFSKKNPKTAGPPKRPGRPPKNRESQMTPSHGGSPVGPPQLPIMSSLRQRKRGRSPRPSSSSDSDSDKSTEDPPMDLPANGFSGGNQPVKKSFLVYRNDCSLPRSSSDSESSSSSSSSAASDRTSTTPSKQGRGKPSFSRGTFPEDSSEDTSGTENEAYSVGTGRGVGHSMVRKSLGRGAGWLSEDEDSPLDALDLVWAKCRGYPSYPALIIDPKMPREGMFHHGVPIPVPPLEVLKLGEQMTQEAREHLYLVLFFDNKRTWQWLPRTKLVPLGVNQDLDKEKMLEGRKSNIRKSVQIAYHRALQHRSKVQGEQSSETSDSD

[4] = target: T4, Peregrin (Homo sapiens, UniProt P55201); assay: Inhibition of human BRPF1 expressed in Escherichia coli BL21 after 1 hr by BROMOscan assay
T4 sequence (P55201 whole entry): T3 sequence (whole entry)

[5] = target: T5, Bromodomain-containing protein 4 (Homo sapiens, UniProt O60885); assay: Inhibition of human BRD4-BD1 expressed in Escherichia coli BL21 after 1 hr by BROMOscan assay
[6] = target: T5, Bromodomain-containing protein 4
[7] = target: T6, Bromodomain-containing protein 9 (Homo sapiens) (UniProt Q9H8M2)
T6 sequence (whole entry): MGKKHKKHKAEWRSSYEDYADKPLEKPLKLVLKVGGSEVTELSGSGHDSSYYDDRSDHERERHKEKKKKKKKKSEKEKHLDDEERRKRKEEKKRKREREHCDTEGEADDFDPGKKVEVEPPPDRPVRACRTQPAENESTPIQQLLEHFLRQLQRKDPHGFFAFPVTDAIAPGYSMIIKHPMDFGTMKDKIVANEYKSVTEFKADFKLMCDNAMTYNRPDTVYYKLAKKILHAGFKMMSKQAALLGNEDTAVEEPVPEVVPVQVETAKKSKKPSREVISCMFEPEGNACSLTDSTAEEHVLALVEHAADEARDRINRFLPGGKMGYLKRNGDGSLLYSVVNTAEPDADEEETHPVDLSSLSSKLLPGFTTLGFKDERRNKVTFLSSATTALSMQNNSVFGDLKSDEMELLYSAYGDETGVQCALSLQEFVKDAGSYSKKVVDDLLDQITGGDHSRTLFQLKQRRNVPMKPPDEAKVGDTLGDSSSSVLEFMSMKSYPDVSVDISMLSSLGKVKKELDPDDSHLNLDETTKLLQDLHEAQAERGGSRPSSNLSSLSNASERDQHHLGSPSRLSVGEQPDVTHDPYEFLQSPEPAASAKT

[8] = target: T7, Bromodomain and PHD finger-containing protein 3 (Homo sapiens, UniProt Q9ULD4); assay: Inhibition of human BRPF3 expressed in Escherichia coli BL21 after 1 hr by BROMOscan assay
T7 sequence (Q9ULD4 whole entry): T2 sequence (whole entry)

[9] = target: T8, Bromodomain-containing protein 9 (Homo sapiens, UniProt Q9H8M2); assay: Inhibition of human BRD9 expressed in Escherichia coli BL21 after 1 hr by BROMOscan assay
T8 sequence (Q9H8M2 whole entry): T6 sequence (whole entry)

[10] = target: T9, Bromodomain-containing protein 1 (Homo sapiens, UniProt O95696); assay: Inhibition of human BRPF2-BRD1 expressed in Escherichia coli BL21 after 1 hr by BROMOscan assay
T9 sequence (O95696 whole entry): T1 sequence (whole entry)

Structure (SMILES) | ΔTm [1] [°C] | pIC50 [4] | ΔTm [6] [°C] | ΔTm [7] [°C] | also measured
CCn1c(=O)c(C)cc2cc(NS(=O)(=O)c3ccc(C#N)cc3)ccc21 | 1.5 | 7.82 | – | – | ΔTm [2]: 1.2 °C; ΔTm [3]: 5.2 °C
COc1ccccc1S(=O)(=O)Nc1ccc2c(c1)cc(C)c(=O)n2C | – | – | – | – | pIC50 [5]: 6.22
Cn1c(=O)ccc2cc(NS(=O)(=O)c3ccc(C#N)cc3)ccc21 | 2.4 | – | 1.4 | 2.3 | pIC50 [8]: 6.00; pIC50 [5]: 5.55
CCc1cc2cc(NS(=O)(=O)c3ccc(C#N)cc3)ccc2n(C)c1=O | 3.3 | 6.74 | – | – | –
Cn1c(=O)ccc2cc(N)ccc21 | – | 5.68 | – | – | –
Cc1cc2cc(N)ccc2n(C)c1=O | – | 6.72 | – | – | –
Cn1c(=O)ccc2cc(NS(=O)(=O)c3ccc(Cl)c(Cl)c3)ccc21 | 2.5 | 7.36 | – | – | ΔTm [3]: 4.9 °C; pIC50 [10]: 6.64

Second part, led by results:

ΔTm [1] [°C] | pIC50 [4] | ΔTm [6] [°C] | ΔTm [7] [°C] | Structure (SMILES) | also measured
2.1 | – | 1.1 | 2.5 | Cn1c(=O)ccc2cc(NS(=O)(=O)c3cccc(C#N)c3)ccc21 | –
1.3 | – | – | – | Cn1c(=O)ccc2cc(NS(=O)(=O)c3ccc(C#N)cc3F)ccc21 | ΔTm [2]: 1.2 °C; ΔTm [3]: 3.6 °C
1.9 | – | 1.1 | 3.5 | Cn1c(=O)ccc2cc(NS(=O)(=O)c3ccccc3)ccc21 | ΔTm [2]: 1.5 °C; pIC50 [9]: 6.66; pIC50 [5]: 5.77
0.9 | – | 1.3 | 2.9 | Cn1c(=O)ccc2cc(NS(=O)(=O)c3ccccc3C#N)ccc21 | –
